Values quoted from earlier work, collected in patent publication US20210401846A1, “MEDICAMENT, COMPOUND, COMPOSITION AND METHOD FOR TREATING HERPES” (priority 2020, published 2021).
Like-named read-outs stand apart in the source and are kept apart here. One block for each molecule: values may come before it.

Assays:
[1] = not given; remark: listed apart in the source
aldehyde oxidase = biological target: T1, aldehyde oxidase (Homo sapiens, UniProt Q06278); settings: in vitro inhibitors of aldehyde oxidase
T1 construct: host or cells: endogenous enzyme in vivo
T1 sequence (Q06278 1-1338): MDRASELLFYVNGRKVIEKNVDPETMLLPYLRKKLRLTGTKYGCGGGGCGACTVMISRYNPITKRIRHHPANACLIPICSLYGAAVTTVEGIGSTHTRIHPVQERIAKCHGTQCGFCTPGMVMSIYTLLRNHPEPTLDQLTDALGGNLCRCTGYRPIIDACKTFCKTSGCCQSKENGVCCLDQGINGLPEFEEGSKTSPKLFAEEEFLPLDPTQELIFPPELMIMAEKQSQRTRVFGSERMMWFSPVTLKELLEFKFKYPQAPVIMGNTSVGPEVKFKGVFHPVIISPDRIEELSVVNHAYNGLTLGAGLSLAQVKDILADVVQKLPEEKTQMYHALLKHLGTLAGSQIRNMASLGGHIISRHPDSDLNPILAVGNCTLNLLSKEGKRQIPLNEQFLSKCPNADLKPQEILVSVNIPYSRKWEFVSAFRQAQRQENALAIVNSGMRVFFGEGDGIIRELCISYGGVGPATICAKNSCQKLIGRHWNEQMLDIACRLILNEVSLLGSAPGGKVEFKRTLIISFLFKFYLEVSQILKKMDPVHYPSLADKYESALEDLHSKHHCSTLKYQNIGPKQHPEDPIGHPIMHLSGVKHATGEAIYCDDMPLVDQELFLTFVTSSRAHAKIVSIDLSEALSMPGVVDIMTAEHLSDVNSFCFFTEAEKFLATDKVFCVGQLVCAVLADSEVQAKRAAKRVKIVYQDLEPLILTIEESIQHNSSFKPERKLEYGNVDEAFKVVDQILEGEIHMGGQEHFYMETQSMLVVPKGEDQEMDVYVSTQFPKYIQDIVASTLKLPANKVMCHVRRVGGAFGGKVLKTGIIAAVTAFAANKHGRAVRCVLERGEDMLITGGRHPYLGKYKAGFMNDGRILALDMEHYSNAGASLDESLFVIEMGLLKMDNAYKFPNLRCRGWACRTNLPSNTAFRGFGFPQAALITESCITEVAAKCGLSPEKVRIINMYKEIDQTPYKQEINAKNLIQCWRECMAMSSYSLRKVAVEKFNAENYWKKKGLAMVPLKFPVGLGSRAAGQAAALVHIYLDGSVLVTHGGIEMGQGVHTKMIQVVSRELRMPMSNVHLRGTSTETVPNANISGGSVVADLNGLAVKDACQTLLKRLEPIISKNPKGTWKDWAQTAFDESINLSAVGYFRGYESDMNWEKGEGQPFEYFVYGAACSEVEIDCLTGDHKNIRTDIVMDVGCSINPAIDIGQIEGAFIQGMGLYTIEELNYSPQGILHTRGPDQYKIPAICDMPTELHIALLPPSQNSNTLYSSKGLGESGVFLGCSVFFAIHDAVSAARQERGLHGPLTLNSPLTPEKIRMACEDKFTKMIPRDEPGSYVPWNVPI

[2] = during therapy
cytochrome P450 = settings: human liver microsomes
[3] = not given; remark: listed apart in the source
[4] = for half-life: 17 patients with herpes zoster
[5] = not given; remark: listed apart in the source
[6] = after single oral 500 mg radiolabeled famciclovir
[7] = single oral 500 mg radiolabeled famciclovir, 3 healthy male volunteers
[8] = oral administration of radiolabeled valacyclovir
[9] = oral single dose 500 mg famciclovir, 7 patients with herpes zoster

share of the radioactivity excreted in the urine [6]: 7%
inactive metabolite, % of the dose in the urine (oral administration of famciclovir): 5%
Structure (SMILES): Nc1ncc2ncn(CCC(CO)CO)c2n1 [6-deoxy penciclovir]

Excretion: urine, primarily as acyclovir ([1]; in vivo): 89%
Structure (SMILES): Nc1nc2c(ncn2COCCO)c(=O)[nH]1 [Acyclovir]

effects on the formation of penciclovir in vivo (aldehyde oxidase): did not show relevant effects
Structure (SMILES): CN/C(=N/CCSCc1nc[nH]c1C)NC#N [Cimetidine]

famciclovir detected in plasma or urine (oral administration): Little or no
radiolabeled dose collected in urine in the first 6 hours (single oral 500 mg radiolabeled famciclovir): Approximately 60%
administered radioactivity recovered in feces over 72 hours [7]: 27%
administered radioactivity recovered in urine over 72 hours [7]: 73%
role of cytochrome P450 in famciclovir metabolism (cytochrome P450): does not play an important role
Structure (SMILES): CC(=O)OCC(CCn1cnc2cnc(N)nc21)COC(C)=O [Famciclovir, famciclovir]
clinically apparent liver injury [2]: has not been associated with instances of clinically apparent liver injury
serum ALT elevations [2]: low rate of mild-to-moderate serum ALT elevations

Half-life elimination ([1]; normal renal function, adults): ~0.5 h
Bioavailability ([1]; once converted to acyclovir): ~55%
label eliminated in the feces (nonabsorbed drug) [1, 8]: 46%
radiolabel eliminated in the urine [1, 8]: 47%
Absorption ([1]; valacyclovir): Rapid
Structure (SMILES): CC(C)[C@H](N)C(=O)OCCOCn1cnc2c(=O)[nH]c(N)nc21 [Valacyclovir]
clinically apparent liver injury [2]: rare instances mild, clinically apparent liver injury

Cmax decrease ([3]; capsule formulation of famciclovir administered with food (approx. 910 Kcal, 26% fat)): approximately 50%
decrease in Cmax ([3]; famciclovir 2 hours after a meal vs 2 hours before a meal): 18%
dose excreted in the first 6 hours (5 mg/kg radiolabeled penciclovir, 1-hour infusion): 83%
administered radioactivity recovered in urine over 24 hours (5 mg/kg radiolabeled penciclovir, 1-hour infusion, 3 healthy male volunteers): Approximately 94%
accumulation of penciclovir (500 mg famciclovir three times daily for 7 days): no accumulation
share of the radioactivity excreted in the urine (after 5 mg/kg radiolabeled penciclovir infusion): 91%
share of the radioactivity excreted in the urine [6]: 82%
Penciclovir concentrations vs dose (famciclovir 125 mg to 1000 mg single dose): increased in proportion to dose
renal clearance as share of total plasma clearance (intravenous penciclovir): 74.5±8.8%
half-life ([4]; repeated doses): 2.7 ± 1.0 h
half-life ([4]; single dose): 2.8 ± 1.0 h
AUC of penciclovir greater in patients with herpes zoster as compared to healthy volunteers ([4]; human, in vivo): approximately 35%
AUC (mean±SD) [4, 9]: 12100 ± 1700 ng·h/mL
Cmax [4, 9]: 4000 ± 700 ng/mL
tmax [4, 9]: 0.7 ± 0.2 h
blood/plasma ratio [5]: approximately 1
bound to plasma proteins ([5]; concentration range 0.1 to 20 mcg/mL): < 20%
Structure (SMILES): Nc1nc2c(ncn2CCC(CO)CO)c(=O)[nH]1 [penciclovir]

effects on the formation of penciclovir in vivo (aldehyde oxidase): did not show relevant effects
Structure (SMILES): CC(CN1c2ccccc2Sc2ccccc21)N(C)C (centres unmarked) [promethazine]
